EP0036502B1, “2-Alkyl-5-hydroxy-1,4-naphthoquinones, process for their manufacture and pharmaceutical preparations containing these compounds” (ZYMA GMBH, priority 1980, dated 1981)

Test system: Prostaglandinsynthetase
Experiment: Prostaglandin synthetase inhibition in vitro (method of Baumann et al.)
Assay type: biochemical
Settings: concentration 10-^3 Mol/I, 1000 µM
Excerpt: Die Erfindung betrifft somit weiterhin die Verwendung der erfindungsgemäßen Verbindungen der allgemeinen Formel I zur Behandlung und Bekämpfung von Entzündungen sowie von allergischen, insbesondere anaphylaktischen Reaktionen. So beträgt beispieslweise die durch 2-Äthyl-5-hydroxy-1,4-naphthochinon hervorgerufene Prostaglandinsynthetase-Hemmung in vitro bei einer Konzentration von 10-^3 Mol/I 87%. Die Bestimmung der Prostaglandinsynthetase-Hemmung wurde nach J. Baumann, F. v. Bruchhausen u. G. Wurm, Naunym-Schmiedeberg's Arch. Pharmacol. 307, 73 (1979) und j. Baumann, G. Wurm u. F. v. Bruchhausen, Arch. Pharm. (Weinheim) 313,330 (1980) durchgeführt.

**Q.** With `CCC1=CC(=O)c2c(O)cccc2C1=O` [2-Äthyl-5-hydroxy-1,4-naphthochinon] as the compound, how does the Prostaglandinsynthetase-Hemmung in vitro read?
**A.** 87%
